In this experiment the test system is gastrischen Drüsenschläuche. Description: 14C-aminopyrine accumulation in isolated gastric glands (inhibition of gastric acid secretion). It is filed as cell-based, Kaninchen. Particulars: read-out: IC50 Inhibition der stimulierten AP-Akkumulation. From the text:
Methode: Die Hochdruckperfusion des […] wurde nach der Beschreibung von Berglindh und Obrink (1) und unter Anwendung einiger Modifikationen, wie sie an anderer Stelle berichtet werden (2), ausgeführt. Kaninchen (männlich und weiblich, 2 - 3 kg) wurden schmerzfrei unter Narkose durch zervikale Dislokation getötet und der Magen wie in der Literatur berichtet perfundiert (1). Die Mukosa des Magenfundus wurde mit einem Schaber entfernt und mittels einer Schere zerkleinert. Die so erhaltenen Mukosafragmente wurden mit_1 mg/ml Kollagenase in einem Medium bestehend aus 100 mM NaCl, 5 mM KCI, 0,5 mM NaH2PO4, 1 mM Na2HPO4, 1 mM CaCl2, 1,5 mM MgCl2, 20 mM NaHCO3, 20 mM HEPES, 2mg/ml Glukose und 1 mg/ml Kaninchenalbumin für 30 - 45 min bei 37°C behandelt, wobei der pH des Gemisches mit Tris-Puffer auf 7,4 eingestellt war. Die Drüsenschläuche (gastric glands) wurden durch ein Nylonnetz zur Entfernung grober Fragmente filtriert und 3 mal mit Inkubationsmedium gespült. Anschließend wurden die Drüsenschläuche im Medium in einer Konzentration von 2 - 4 mg Trockengewicht/ml suspendiert.
Als Maß für die Fähigkeit der gastrischen Drüsenschläuche zur Säurebildung wurde die Akkumulation von ^14C-Aminopyrin (^14C-AP) bestimmt (3). Hierzu wurden Proben von 1 ml Drüsenschlauchsuspension mit ^14C-AP (1 µM, 200 000 cpm) und der zu testenden Verbindung inkubiert und für 20 - 30 min bei 37°C in einem schüttelnden Wasserbad behandelt. Anschließend wurden Histamin (100 µM), dbcAMP (0.3 oder 1 mM) oder Carbachol (100 µM) zugegeben, gefolgt von einer zweiten Inkubationsdauer von 30 - 45 min.. Die Inkubation wurde anschließend beendet durch Zentrifugiren der Proben für eine halbe Minute. Die überstehende Flüssigkeit wurde entfernt und die erhaltenen pellets in 1 ml NaOH gelöst. Proben der Pellets und des Flüssigkeitsüberstands wurden im Szintillationszähler gemessen. Das AP-Verhältnis der intraglandulären und extraglandulären Radioaktivität wurde nach Sack und Spenney (4) berechnet. Alle Bestimmungen wurden dreifach durchgeführt.

The record followed here is patent EP0807629B1, “Sulfonamido substituted chromane derivatives, method for their preparation, their use as medicaments or diagnostic agents aswell as medicaments containing them” (Aventis Pharma Deutschland GmbH, priority 1996, dated 1997).

Read-outs that look alike come from different tables or passages of the source.

Usually IC50 stands for the midpoint of a concentration-inhibition curve. For the compound `CCS(=O)(=O)N(C)[C@@H]1c2cc(C#N)ccc2OC(C)(C)[C@H]1O` (relative stereo) [293B, trans-6-Cyano-4-(N-ethylsulfonyl-N-methylamino)-3-hydroxy-2,2-dimethyl-chroman], the 50% inhibitory concentration (IC50) is, setting by setting: (after Carbachol stimulation (100 µM)) 5 µM; (after Histamin stimulation (100 µM)) 20 µM; (after dbcAMP stimulation (0.3 or 1 mM)) 20 µM.
